Measurements reported in patent publication US11065300B2, “Immunomodulator for hypersensitivity reaction to house dust mite-derived allergen” (MD HEALTHCARE INC., priority 2016, dated 2021).

System: macrophage RAW264.7
Assay: IL-6 and TNF-alpha secretion by macrophages given MicA sRNA Salmonella vesicles mixed with PMB
Format: cell-based
Method: Salmonella-derived vesicles themselves have good immunogenicity, but toxicity due to LPS present in the extracellular membrane is a problem. In order to solve this problem, the induction level of innate immune response was evaluated by mixing PMB inhibiting the activity of LPS with vesicles derived from Salmonella overexpressing Mic A sRNA.
Specifically, inflammatory cells (macrophage RAW264.7, 5×10^5 cells/well) were cultured in DMEM comprising 10% FBS and antibiotics (100 units/ml penicillin and 100 μg/ml streptomycin) for 24 hours at 37° C. 24 well tissue culture plate (TPP). After the medium was removed, extracellular vesicles comprising PMB were changed to serum-free DMEM medium added at a concentration of 1 ug/ml. After 15 hours, secretion of IL-6 and TNF-alpha was measured in inflammatory cells.
In order to determine the optimum PMB dilution concentration, in the above method, the PMB concentration was subdivided into 1, 2, 4, 8, and 10 ug/ml and administered to the macrophages together with the vesicles.

Which results are given for polymyxin B [PMB]?
IL-6 secretion (PMB 1 μg/ml or 10 μg/ml mixed with vesicles 1 ug/ml, RAW264.7, 15 hours): decreased; TNF-alpha secretion (PMB 10 μg/ml mixed with vesicles 1 ug/ml, RAW264.7, 15 hours): inhibited; PMB concentration above which secretion of IL-6 no longer decreased (PMB 1, 2, 4, 8 and 10 ug/ml with vesicles, RAW264.7): 2 µg/mL
